Reference: patent publication US10058550B2, “Methods of treating heart failure” (priority 2015, dated 2018)

Target: human APJ receptor (Homo sapiens (Human), UniProt P35414)
Assay: biochemical
Type: biochemical
Settings: read-out: Activity hAPJ SPA EC50 IP
Outline: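 Agonist-stimulated [35S]GTPγS (0.2 nM) binding was read by SPA after 90 min at room temperature. Buffer: 20 mM HEPES pH 7.5 with 5 mM MgCl2, 200 mM NaCl, 3 μM GDP, 0.1% BSA; membranes were from a stable human APJ CHO line. EC50 values are averages of independent runs, fitted by non-linear regression.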

human APJ receptor, sequence (P35414 whole entry): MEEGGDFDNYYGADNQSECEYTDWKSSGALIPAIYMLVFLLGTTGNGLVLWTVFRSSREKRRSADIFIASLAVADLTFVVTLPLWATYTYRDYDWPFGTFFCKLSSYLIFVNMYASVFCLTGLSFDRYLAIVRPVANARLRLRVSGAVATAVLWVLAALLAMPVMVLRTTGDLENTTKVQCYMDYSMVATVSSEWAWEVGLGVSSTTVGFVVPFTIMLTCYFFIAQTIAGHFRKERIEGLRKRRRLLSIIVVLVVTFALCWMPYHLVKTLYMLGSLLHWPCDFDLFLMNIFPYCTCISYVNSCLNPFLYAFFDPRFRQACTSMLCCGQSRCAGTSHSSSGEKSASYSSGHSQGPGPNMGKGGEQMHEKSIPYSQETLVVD

SMILES	EC50 [nM]
COc1cccc(OC)c1-n1c(NS(=O)(=O)[C@@H](C)[C@@H](OC(C)C)c2ncc(C)cn2)nnc1-c1ccccn1 [Example 778.0, (1S,2S)-N-(4-(2,6-dimethoxyphenyl)-5-(2-pyridinyl)-4H-1,2,4-triazol-3-yl)-1-(1-methylethoxy)-1-(5-methyl-2-pyrimidinyl)-2-propanesulfonamide]	0.77
COc1ncnc(OC)c1-n1c(NS(=O)(=O)[C@@H](C)[C@H](OC)c2cnc(C)cn2)nnc1-c1ccccn1 [Example 779.0, (1R,2S)-N-(4-(4,6-dimethoxy-5-pyrimidinyl)-5-(2-pyridinyl)-4H-1,2,4-triazol-3-yl)-1-methoxy-1-(5-methyl-2-pyrazinyl)-2-propanesulfonamide]	17
COc1cccc(OC)c1-n1c(NS(=O)(=O)[C@@H](C)[C@H](OC)c2cnc(C)cn2)nnc1-c1ccccn1 [Example 780.0, (1R,2S)-N-(4-(2,6-dimethoxyphenyl)-5-(2-pyridinyl)-4H-1,2,4-triazol-3-yl)-1-methoxy-1-(5-methyl-2-pyrazinyl)-2-propanesulfonamide]	8.8
Cc1cnc([C@@H](C)[C@H](C)S(=O)(=O)Nc2nnc(-c3cccc(C)n3)n2-c2c(F)cccc2F)nc1 [Example 783.0, (2S,3R)-N-(4-(2,6-difluorophenyl)-5-(6-methyl-2-pyridinyl)-4H-1,2,4-triazol-3-yl)-3-(5-methyl-2-pyrimidinyl)-2-butanesulfonamide]	4.2
COc1cccc(-c2nnc(NS(=O)(=O)[C@@H](C)[C@H](C)c3ncc(C)cn3)n2-c2c(F)cccc2F)n1 [Example 784.0, (2S,3R)-N-(4-(2,6-difluorophenyl)-5-(6-methoxy-2-pyridinyl)-4H-1,2,4-triazol-3-yl)-3-(5-methyl-2-pyrimidinyl)-2-butanesulfonamide]	0.4
Cc1cnc([C@@H](C)[C@H](C)S(=O)(=O)Nc2nnc(-c3ccccn3)n2-c2c(F)cccc2F)nc1 [Example 785.0, (2S,3R)-N-(4-(2,6-difluorophenyl)-5-(2-pyridinyl)-4H-1,2,4-triazol-3-yl)-3-(5-methyl-2-pyrimidinyl)-2-butanesulfonamide]	4.9
COc1cccc(-c2nnc(NS(=O)(=O)[C@@H](C)[C@H](C)c3ncc(Cl)cn3)n2-c2c(F)cccc2F)n1 [Example 786.0, (2S,3R)-3-(5-chloro-2-pyrimidinyl)-N-(4-(2,6-difluorophenyl)-5-(6-methoxy-2-pyridinyl)-4H-1,2,4-triazol-3-yl)-2-butanesulfonamide]	0.16
Cc1cccc(-c2nnc(NS(=O)(=O)[C@@H](C)[C@H](C)c3ncc(Cl)cn3)n2-c2c(F)cccc2F)n1 [Example 788.0, (2S,3R)-3-(5-chloro-2-pyrimidinyl)-N-(4-(2,6-difluorophenyl)-5-(6-methyl-2-pyridinyl)-4H-1,2,4-triazol-3-yl)-2-butanesulfonamide]	0.84
COc1cccc(-c2nnc(NS(=O)(=O)[C@@H](C)[C@H](C)c3cnc(C)cn3)n2-c2c(F)cccc2F)n1 [Example 789.0, (2S,3R)-N-(4-(2,6-difluorophenyl)-5-(6-methoxy-2-pyridinyl)-4H-1,2,4-triazol-3-yl)-3-(5-methyl-2-pyrazinyl)-2-butanesulfonamide]	1.9
Cc1cnc([C@@H](C)[C@H](C)S(=O)(=O)Nc2nnc(-c3cccc(C)n3)n2-c2c(F)cccc2F)cn1 [Example 790.0, (2S,3R)-N-(4-(2,6-difluorophenyl)-5-(6-methyl-2-pyridinyl)-4H-1,2,4-triazol-3-yl)-3-(5-methyl-2-pyrazinyl)-2-butanesulfonamide]	20
CNc1cccc(-c2nnc(NS(=O)(=O)[C@@H](C)[C@H](C)c3ncc(C)cn3)n2-c2c(F)cccc2F)n1 [Example 791.0, (2S,3R)-N-(4-(2,6-difluorophenyl)-5-(6-(methylamino)-2-pyridinyl)-4H-1,2,4-triazol-3-yl)-3-(5-methyl-2-pyrimidinyl)-2-butanesulfonamide]	0.63
COc1cccc(-c2nnc(NS(=O)(=O)[C@H](C)[C@@H](OC)c3ncc(C)cn3)n2-c2c(F)cccc2F)n1 [Example 792.0, (1S,2R)-N-(4-(2,6-difluorophenyl)-5-(6-methoxy-2-pyridinyl)-4H-1,2,4-triazol-3-yl)-1-methoxy-1-(5-methyl-2-pyrimidinyl)-2-propanesulfonamide]	51
Cc1cnc([C@@H](C)[C@H](C)S(=O)(=O)Nc2nnc(-c3cccnc3)n2-c2c(F)cccc2F)nc1 [Example 793.0, (2S,3R)-N-(4-(2,6-difluorophenyl)-5-(3-pyridinyl)-4H-1,2,4-triazol-3-yl)-3-(5-methyl-2-pyrimidinyl)-2-butanesulfonamide]	15
COc1cnc([C@@H](C)[C@H](C)S(=O)(=O)Nc2nnc(-c3cncc(C)c3)n2-c2c(F)cccc2F)cn1 [Example 794.0, (2S,3R)-N-(4-(2,6-difluorophenyl)-5-(5-methyl-3-pyridinyl)-4H-1,2,4-triazol-3-yl)-3-(5-methoxy-2-pyrazinyl)-2-butanesulfonamide]	6.6
Cc1cncc(-c2nnc(NS(=O)(=O)[C@@H](C)[C@H](C)c3cnc(C)cn3)n2-c2c(F)cccc2F)c1 [Example 795.0, (2S,3R)-N-(4-(2,6-difluorophenyl)-5-(5-methyl-3-pyridinyl)-4H-1,2,4-triazol-3-yl)-3-(5-methyl-2-pyrazinyl)-2-butanesulfonamide]	30
Cc1cncc(-c2nnc(NS(=O)(=O)[C@@H](C)[C@H](C)c3ncc(Cl)cn3)n2-c2c(F)cccc2F)c1 [Example 796.0, (2S,3R)-3-(5-chloro-2-pyrimidinyl)-N-(4-(2,6-difluorophenyl)-5-(5-methyl-3-pyridinyl)-4H-1,2,4-triazol-3-yl)-2-butanesulfonamide]	1.1
COc1ncnc(OC)c1-n1c(NS(=O)(=O)[C@@H](C)[C@H](C)c2cnc(C)cn2)nnc1-c1cccnc1 [Example 806.0, (2S,3R)-N-(4-(4,6-dimethoxy-5-pyrimidinyl)-5-(3-pyridinyl)-4H-1,2,4-triazol-3-yl)-3-(5-methyl-2-pyrazinyl)-2-butanesulfonamide]	19
C[C@H](c1ccc(Cl)cn1)[C@H](C)S(=O)(=O)Nc1nnc(-c2cccnc2)n1-c1c(O)nc[nH]c1=O [Example 810.0, (2S,3R)-3-(5-chloro-2-pyridinyl)-N-(4-(4-hydroxy-6-oxo-1,6-dihydro-5-pyrimidinyl)-5-(3-pyridinyl)-4H-1,2,4-triazol-3-yl)-2-butanesulfonamide]	770
COc1ncnc(OC)c1-n1c(NS(=O)(=O)[C@@H](C)[C@@H](OC(C)C)c2ncc(C)cn2)nnc1-c1cncc(C)c1 [Example 829.0, (1S,2S)-N-(4-(4,6-dimethoxy-5-pyrimidinyl)-5-(5-methyl-3-pyridinyl)-4H-1,2,4-triazol-3-yl)-1-(1-methylethoxy)-1-(5-methyl-2-pyrimidinyl)-2-propanesulfonamide]	9.5
COc1cccc(-c2nnc(NS(=O)(=O)[C@@H]3CCCN(c4ncc(Cl)cn4)C3)n2-c2c(OC)ncnc2OC)n1 [Example 831.0, (3R)-1-(5-chloro-2-pyrimidinyl)-N-(4-(4,6-dimethoxy-5-pyrimidinyl)-5-(6-methoxy-2-pyridinyl)-4H-1,2,4-triazol-3-yl)-3-piperidinesulfonamide, (3S)-1-(5-chloro-2-pyrimidinyl)-N-(4-(4,6-dimethoxy-5-pyrimidinyl)-5-(6-methoxy-2-pyridinyl)-4H-1,2,4-triazol-3-yl)-3-piperidinesulfonamide]	0.89
COc1cccc(-c2nnc(NS(=O)(=O)CC3CC3)n2-c2c(OC)cccc2OC)n1 [Example 832.0, 1-cyclopropyl-N-(4-(2,6-dimethoxyphenyl)-5-(6-methoxy-2-pyridinyl)-4H-1,2,4-triazol-3-yl)methanesulfonamide]	110
COc1cccc(-c2nnc(NS(=O)(=O)[C@@H](C)[C@H](C)c3ncc(Cl)cn3)n2C2CCOCC2)n1 [Example 835.0, (2S,3R)-3-(5-chloro-2-pyrimidinyl)-N-(5-(6-methoxy-2-pyridinyl)-4-(tetrahydro-2H-pyran-4-yl)-4H-1,2,4-triazol-3-yl)-2-butanesulfonamide]	13
COc1cccc(-c2nnc(NS(=O)(=O)[C@@H](C)[C@H](OC)c3ncc(Cl)cn3)n2C2CCOCC2)n1 [Example 836.0, (1R,2S)-1-(5-chloro-2-pyrimidinyl)-1-methoxy-N-(5-(6-methoxy-2-pyridinyl)-4-(tetrahydro-2H-pyran-4-yl)-4H-1,2,4-triazol-3-yl)-2-propanesulfonamide]	2.9
COc1cccc(-c2nnc(NS(=O)(=O)[C@@H](C)[C@@H](OC(C)C)c3ncc(C)cn3)n2C2CCOCC2)n1 [Example 837.0, (1S,2S)-N-(5-(6-methoxy-2-pyridinyl)-4-(tetrahydro-2H-pyran-4-yl)-4H-1,2,4-triazol-3-yl)-1-(1-methylethoxy)-1-(5-methyl-2-pyrimidinyl)-2-propanesulfonamide]	5.1
COc1cccc(-c2nnc(NS(=O)(=O)[C@@H](C)[C@H](C)c3ccc(Cl)cn3)n2C2CCOCC2)n1 [Example 840.0, (2S,3R)-3-(5-chloro-2-pyridinyl)-N-(5-(6-methoxy-2-pyridinyl)-4-(tetrahydro-2H-pyran-4-yl)-4H-1,2,4-triazol-3-yl)-2-butanesulfonamide]	13
COc1cccc(-c2nnc(NS(=O)(=O)[C@@H](C)[C@H](OC)c3ccc(Cl)cn3)n2C2CCOCC2)n1 [Example 841.0, (1R,2S)-1-(5-chloro-2-pyridinyl)-1-methoxy-N-(5-(6-methoxy-2-pyridinyl)-4-(tetrahydro-2H-pyran-4-yl)-4H-1,2,4-triazol-3-yl)-2-propanesulfonamide]	8.6
COc1cnc([C@@H](C)[C@H](C)S(=O)(=O)Nc2nnc(-c3cccc(OC)n3)n2C2CCOCC2)nc1 [Example 842.0, (2S,3R)-N-(5-(6-methoxy-2-pyridinyl)-4-(tetrahydro-2H-pyran-4-yl)-4H-1,2,4-triazol-3-yl)-3-(5-methoxy-2-pyrimidinyl)-2-butanesulfonamide]	140
